Read-outs that look alike come from different tables or passages of the source.
Legend:
[1] = target: T1, KOR (Homo sapiens, UniProt P41145); assay: cell-based; settings: for EC50: EC50 arrestin recruitment (Tango) hKOR; for Emax: HTLA, read-out: Emax% arrestin recruitment (Tango) hKOR
[2] = target: T1, KOR; assay: cell-based; settings: for EC50: EC50 cAMP inhibition hKOR; for Emax: HEK-293T, read-out: Emax% cAMP inhibition hKOR
[3] = target: T1, KOR; settings: for Log RA cAMP hKOR / LogRA Tango hKOR: transduction coefficient log(T/KA)
[4] = target: T2, MOR (Homo sapiens, UniProt P35372)
[5] = target: T2, MOR; assay: cell-based; settings: for Emax: HEK-293T, read-out: Emax% cAMP inhibition hMOR
[6] = target: T3, mDOR (Mus musculus, UniProt P32300); assay: cell-based
[7] = target: T4, rKOR (Rattus norvegicus, UniProt P34975)
[8] = target: T3, mDOR; assay: biochemical
[9] = target: mKOR (Mus musculus, UniProt P33534); assay: biochemical
[10] = target: T5, DOR (Homo sapiens, UniProt P41143); assay: cell-based; settings: for EC50: Tango
[11] = target: T6, mMOR (Mus musculus, UniProt P42866); assay: biochemical
[12] = target: T4, rKOR; assay: cell-based; settings: HEK-293T, read-out: Emax% arrestin recruitment (BRET) rKOR
[13] = target: T4, rKOR; assay: cell-based; settings: HEK-293T, read-out: Emax% G protein activation (BRET) rKOR
[14] = target: T6, mMOR; assay: cell-based; parameters: expressed in transfected cells; host or cells: HEK-293T
[15] = target: T2, MOR; remark: listed apart in the source
[16] = target: T5, DOR; assay: cell-based
[17] = target: T6, mMOR; assay: cell-based
[18] = target: T2, MOR; assay: cell-based
[19] = target: T3, mDOR; assay: cell-based; remark: listed apart in the source

T2 sequence (P35372 whole entry): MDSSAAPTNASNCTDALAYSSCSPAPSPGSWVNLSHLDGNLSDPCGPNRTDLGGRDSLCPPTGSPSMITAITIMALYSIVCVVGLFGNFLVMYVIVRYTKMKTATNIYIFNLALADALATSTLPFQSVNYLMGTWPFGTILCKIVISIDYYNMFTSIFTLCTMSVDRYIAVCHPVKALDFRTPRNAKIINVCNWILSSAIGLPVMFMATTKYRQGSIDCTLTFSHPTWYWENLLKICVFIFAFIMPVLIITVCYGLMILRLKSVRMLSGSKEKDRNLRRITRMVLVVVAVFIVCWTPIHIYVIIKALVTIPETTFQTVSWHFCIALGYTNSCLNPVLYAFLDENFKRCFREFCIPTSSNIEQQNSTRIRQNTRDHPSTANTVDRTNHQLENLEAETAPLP
T5 sequence (P41143 whole entry): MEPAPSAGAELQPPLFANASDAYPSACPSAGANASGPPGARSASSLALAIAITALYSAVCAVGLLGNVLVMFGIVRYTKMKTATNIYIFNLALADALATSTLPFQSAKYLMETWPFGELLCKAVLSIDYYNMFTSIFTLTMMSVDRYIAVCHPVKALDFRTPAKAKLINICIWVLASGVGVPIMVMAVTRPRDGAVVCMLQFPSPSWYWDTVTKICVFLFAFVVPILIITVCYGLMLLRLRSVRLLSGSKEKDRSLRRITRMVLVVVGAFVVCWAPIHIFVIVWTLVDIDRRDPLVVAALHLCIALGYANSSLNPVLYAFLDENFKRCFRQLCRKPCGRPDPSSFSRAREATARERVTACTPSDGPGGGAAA
T1 sequence (P41145 whole entry): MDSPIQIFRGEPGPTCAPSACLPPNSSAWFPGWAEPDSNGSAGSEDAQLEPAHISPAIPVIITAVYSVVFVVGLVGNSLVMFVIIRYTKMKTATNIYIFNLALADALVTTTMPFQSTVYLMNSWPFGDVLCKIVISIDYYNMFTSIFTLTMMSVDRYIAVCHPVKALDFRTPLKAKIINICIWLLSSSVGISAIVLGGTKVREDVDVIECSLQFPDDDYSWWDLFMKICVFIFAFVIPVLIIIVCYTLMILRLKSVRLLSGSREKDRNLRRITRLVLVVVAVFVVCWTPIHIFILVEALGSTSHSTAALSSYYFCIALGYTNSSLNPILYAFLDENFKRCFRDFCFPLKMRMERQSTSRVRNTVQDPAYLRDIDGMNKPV
T6 sequence (P42866 whole entry): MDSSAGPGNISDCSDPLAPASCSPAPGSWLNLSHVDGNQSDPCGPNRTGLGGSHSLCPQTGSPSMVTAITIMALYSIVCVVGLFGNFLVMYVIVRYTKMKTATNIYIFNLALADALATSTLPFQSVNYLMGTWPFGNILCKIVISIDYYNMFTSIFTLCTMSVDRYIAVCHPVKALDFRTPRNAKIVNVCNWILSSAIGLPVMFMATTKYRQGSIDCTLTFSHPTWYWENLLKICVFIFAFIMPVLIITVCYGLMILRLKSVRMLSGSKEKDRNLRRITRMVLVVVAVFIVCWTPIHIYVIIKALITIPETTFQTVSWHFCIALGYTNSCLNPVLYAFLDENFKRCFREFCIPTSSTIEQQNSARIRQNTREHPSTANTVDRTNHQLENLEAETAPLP
T3 sequence (P32300 whole entry): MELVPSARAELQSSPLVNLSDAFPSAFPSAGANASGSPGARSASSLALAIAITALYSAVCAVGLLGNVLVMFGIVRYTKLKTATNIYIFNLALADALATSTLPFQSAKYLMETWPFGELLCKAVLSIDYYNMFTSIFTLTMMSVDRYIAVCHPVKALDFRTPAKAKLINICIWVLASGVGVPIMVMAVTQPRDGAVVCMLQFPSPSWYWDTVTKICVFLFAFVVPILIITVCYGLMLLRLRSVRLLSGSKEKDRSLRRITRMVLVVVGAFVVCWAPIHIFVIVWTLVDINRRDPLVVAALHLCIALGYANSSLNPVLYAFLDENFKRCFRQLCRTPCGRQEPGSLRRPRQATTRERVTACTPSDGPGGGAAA
T4 sequence (P34975 whole entry): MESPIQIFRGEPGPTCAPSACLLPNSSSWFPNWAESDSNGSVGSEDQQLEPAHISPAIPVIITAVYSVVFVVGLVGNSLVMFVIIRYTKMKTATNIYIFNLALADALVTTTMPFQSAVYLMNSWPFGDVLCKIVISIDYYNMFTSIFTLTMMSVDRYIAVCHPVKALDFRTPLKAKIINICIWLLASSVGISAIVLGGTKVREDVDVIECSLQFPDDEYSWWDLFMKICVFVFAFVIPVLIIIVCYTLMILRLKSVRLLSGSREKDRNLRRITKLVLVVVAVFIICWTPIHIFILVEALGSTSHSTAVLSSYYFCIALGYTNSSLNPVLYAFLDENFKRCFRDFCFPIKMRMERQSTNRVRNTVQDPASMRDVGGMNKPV
Sequence of mKOR (P33534 whole entry): as the sequence (P34975 whole entry) above, with E11D, A17S, P51S, V308A counted along it

O=C(N[C@@H]1CC[C@H]2[C@H]3Cc4ccc(O)c5c4[C@@]2(CCN3CC2CC2)[C@H]1O5)c1cccc(CO)c1 [MP1210, N-((4R,4aR,7R,7aR,12bS)−3-(cyclopropylmethyl)−9-hydroxy-2,3,4,4a,5,6,7,7a-octahydro-1H-4,12-methano[1]benzofuro[3,2-e]isoquinolin-7-yl)−3-(hydroxymethyl)benzamide]
EC50 [1]: 1.16 nM | Emax [1]: 63 ± 3.3% | EC50 [2]: 25 pM | Emax [2]: 101 ± 1.1% | ΔΔlog RA (cAMP-Tango) hKOR [3]: -0.28±0.19 | Log RA cAMP hKOR [3]: 10.59±0.06 | LogRA Tango hKOR [3]: 8.576±0.156 | ΔlogRA Tango hKOR ([3]; vs U50,488h): 0.48±0.18 | ΔlogRA cAMP hKOR ([3]; vs U50,488h): 0.2±0.081 | arrestin recruitment at hMOR (in words) [4]: null arrestin recruitment | Emax [5]: 94.6 ± 0.98% | EC50 ([5]; pEC50 cAMP inhibition hMOR): 0.155 nM

O=C(NC1CCC2(O)C3Cc4ccc(O)c5c4C2(CCN3CC2CC2)C1O5)c1cccc(I)c1 (stereo not drawn) [IBNtxA]
EC50 ([6]; EC50 arrestin recruitment (BRET) mDOR): 26.6 nM | Emax ([6]; HEK-293T, read-out: Emax% arrestin recruitment (BRET) mDOR): 88 ± 6.8% | EC50 ([6]; pEC50 arrestin recruitment (BRET) mDOR, ± SEM): 31.6 nM | EC50 [1]: 0.013 nM | Emax [1]: 109 ± 1.8% | Log RA BRET-G rKOR [7]: 10.19±0.141 | LogRA BRET-Arr rKOR [7]: 8.846±0.266 | ΔΔlog RA (BRETG-BRETArr) rKOR [7]: -0.218±0.388 | ΔlogRA BRET-G rKOR ([7]; vs U50,488h): 2.64±0.175 | ΔlogRA BRET-arr rKOR ([7]; vs U50,488h): 2.858±0.346 | EC50 ([2]; cell printed in pM): 2.46 pM | Emax [2]: 101 ± 1.79% | EC50 [8]: 4.08 ± 0.67 nM | Emax ([8]; read-out: Emax mDOR [35S]GTPγS): 95 ± 2% | EC50 ([9]; EC50 mKOR [35S]GTPγS, ± SEM): 0.22 ± 0.02 nM | Emax ([9]; read-out: Emax mKOR [35S]GTPγS): 102 ± 4% | EC50 ([10]; EC50 arrestin recruitment hDOR): 14.1 nM | Emax ([10]; HTLA, read-out: Emax% arrestin recruitment hDOR): 224 ± 5% | EC50 ([10]; pEC50 arrestin recruitment hDOR, ± SEM): 15.8 nM | ΔΔlog RA (cAMP-Tango) hKOR [3]: -1.002±0.052 | Bias factor (cAMP-Tango) hKOR ([3]; >1 G protein bias, <1 arrestin bias, vs U50,488h): 0.1 | Log RA cAMP hKOR [3]: 11.59±0.036 | LogRA Tango hKOR [3]: 10.89±0.010 | ΔlogRA Tango hKOR ([3]; vs U50,488h): 2.53±0.015 | ΔlogRA cAMP hKOR ([3]; vs U50,488h): 1.53±0.050 | EC50 ([11]; EC50 mMOR [35S]GTPγS, ± SEM): 0.49 ± 0.12 nM | Emax ([11]; read-out: Emax mMOR [35S]GTPγS): 101 ± 3% | Emax [12]: 133 ± 7.3% | Emax [13]: 101 ± 2.3% | EC50 [14]: 11300 nM | Emax ([14]; HEK-293T, read-out: Emax% arrestin recruitment (BRET) mMOR): 75% | Bias factor (cAMP-Tango) hMOR [15]: 24 | Log RA cAMP hMOR [15]: 9.99±0.081 | LogRA Tango hMOR [15]: 7.572±0.25 | ΔlogRA Tango hMOR [15]: -0.25±0.25 | ΔlogRA cAMP hMOR [15]: 1.14±0.11 | ΔΔlog RA (cAMP-Tango) hMOR [15]: 1.38±0.28 | EC50 ([16]; EC50 cAMP inhibition hDOR): 0.43 nM | Emax ([16]; HEK-293T, read-out: Emax% cAMP inhibition hDOR): 106 ± 1% | EC50 ([16]; pEC50 cAMP inhibition hDOR, ± SEM): 0.501 nM | EC50 ([17]; EC50 G protein activation (BRET) mMOR): 0.054 nM | Emax ([17]; HEK-293T, read-out: Emax% G protein activation (BRET) mMOR): 59% | EC50 [18]: 5.86 nM | Emax ([18]; HTLA, read-out: Emax% arrestin recruitment (Tango) hMOR): 29 ± 0.02% | EC50 ([19]; EC50 G protein activation (BRET) mDOR): 0.48 nM | Emax ([19]; HEK-293T, read-out: Emax% G protein activation (BRET) mDOR): 108 ± 3.7% | EC50 ([5]; EC50 cAMP inhibition hMOR): 0.07 nM | Emax [5]: 95 ± 2%

Reference: PMC7909954 (eLife, 2021)
